Source: publication PMC9495423, “Identification of the Natural Steroid Sapogenin Diosgenin as a Direct Dual-Specific RORα/γ Inverse Agonist” (Biomedicines, 2022)

Tests used:
RORα = target: T1, RORα (Homo sapiens, UniProt P35398); assay: RORα-Gal4 luciferase reporter assay in HEK293 cells (inverse agonism); type: cell-based
T1 construct: gene RORA; RORα-Gal4
T1 sequence (P35398 1-523): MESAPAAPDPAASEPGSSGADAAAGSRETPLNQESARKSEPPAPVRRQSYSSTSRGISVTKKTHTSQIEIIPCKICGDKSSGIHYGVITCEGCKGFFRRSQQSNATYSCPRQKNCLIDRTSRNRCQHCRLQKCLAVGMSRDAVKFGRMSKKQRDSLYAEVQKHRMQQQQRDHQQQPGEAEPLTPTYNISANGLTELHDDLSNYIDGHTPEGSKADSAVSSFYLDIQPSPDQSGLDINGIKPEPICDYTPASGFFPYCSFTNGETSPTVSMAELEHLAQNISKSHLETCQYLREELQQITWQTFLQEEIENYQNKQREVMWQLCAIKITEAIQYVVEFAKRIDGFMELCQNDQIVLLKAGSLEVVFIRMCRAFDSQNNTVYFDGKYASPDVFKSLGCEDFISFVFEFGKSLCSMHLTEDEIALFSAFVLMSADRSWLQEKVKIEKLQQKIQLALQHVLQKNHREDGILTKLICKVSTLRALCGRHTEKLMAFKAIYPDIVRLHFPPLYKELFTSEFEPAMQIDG

RORγ = target: T2, RORγ (Homo sapiens, UniProt P51449); assay: RORγ-Gal4 luciferase reporter assay in HEK293 cells (inverse agonism); full-length RORγ-RORE assay IC50 […]; type: cell-based
T2 construct: gene RORC; also full-length RORγ transcript variant 1
T2 sequence (P51449 265-507 limits assumed): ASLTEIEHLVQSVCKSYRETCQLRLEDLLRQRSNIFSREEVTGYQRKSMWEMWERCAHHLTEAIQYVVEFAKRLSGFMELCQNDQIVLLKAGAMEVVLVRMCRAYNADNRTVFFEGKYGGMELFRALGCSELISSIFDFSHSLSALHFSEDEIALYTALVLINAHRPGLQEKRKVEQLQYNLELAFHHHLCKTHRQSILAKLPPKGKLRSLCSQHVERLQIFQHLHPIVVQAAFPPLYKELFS

C[C@@H]1CC[C@@]2(OC1)O[C@H]1C[C@H]3[C@@H]4CC=C5C[C@@H](O)CC[C@]5(C)[C@H]4CC[C@]3(C)[C@H]1[C@@H]2C [diosgenin]
IC50 (RORα): 2170 nM
IC50 (RORγ): 1730 nM
